Reference: patent publication US9738932B2, “Biomarkers for cardiovascular side-effects induced by cox-2 inhibitory compounds” (FIRALIS SAS, priority 2005, dated 2017)

System: mRNA expression in cardiovascular tissues
Test: Affymetrix GeneChip mRNA expression profiling of monkey tissues (iliac vein, pulmonary vein, aorta, carotid artery, heart) after two-week oral-gavage treatment
Settings: iliac vein
[1] = group average (Vioxx without A60055)
[2] = group avg, Vioxx without A60055

## O=C(O)Cc1ccccc1Nc1c(Cl)cccc1Cl [Voltaren]
[1]
  ACE (209749_s_at) mRNA expression, Avg fold changes vs control: 1.1 fold
  B2M (216231_s_at) mRNA expression, Avg fold changes vs control: 1.2 fold
  BCL6 (215990_s_at) mRNA expression, Avg fold changes vs control: 1.0 fold
  BTN2A2 (205298_s_at) mRNA expression, Avg fold changes vs control: 1.1 fold
  CCR1 (205098_at) mRNA expression, Avg fold changes vs control: 1.3 fold
  CD2 (205831_at) mRNA expression, Avg fold changes vs control: 1.1 fold
  CD48 (204118_at) mRNA expression, Avg fold changes vs control: 1.2 fold
  CD53 (203416_at) mRNA expression, Avg fold changes vs control: 1.4 fold
  CDC2 (210559_s_at) mRNA expression, Avg fold changes vs control: 1.2 fold
  CYBB (203922_s_at) mRNA expression, Avg fold changes vs control: 1.1 fold
  EMP3 (203729_at) mRNA expression, Avg fold changes vs control: 0.8 fold
  FCER1G (204232_at) mRNA expression, Avg fold changes vs control: 1.5 fold
  FCGR2A (203561_at) mRNA expression, Avg fold changes vs control: 1.4 fold
  FCGRT (218831_s_at) mRNA expression, Avg fold changes vs control: 0.9 fold
  FKBP11 (219117_s_at) mRNA expression, Avg fold changes vs control: 0.7 fold
  FKBP11 (219118_at) mRNA expression, Avg fold changes vs control: 0.8 fold
  GP6 (220336_s_at) mRNA expression, Avg fold changes vs control: 1.0 fold
  HCLS1 (202957_at) mRNA expression, Avg fold changes vs control: 1.1 fold
  HEM1 (209734_at) mRNA expression, Avg fold changes vs control: 1.1 fold
  HLA-A (210514_x_at) mRNA expression, Avg fold changes vs control: 1.0 fold
  HLA-A (213932_x_at) mRNA expression, Avg fold changes vs control: 1.1 fold
  HLA-C (211799_x_at) mRNA expression, Avg fold changes vs control: 0.8 fold
  HLA-E (200904_at) mRNA expression, Avg fold changes vs control: 1.2 fold
  HLA-F (221978_at) mRNA expression, Avg fold changes vs control: 1.4 fold
  ICAM1 (202637_s_at) mRNA expression, Avg fold changes vs control: 1.0 fold
  IL13RA1 (210904_s_at) mRNA expression, Avg fold changes vs control: 0.9 fold
  PIK3CD (203879_at) mRNA expression, Avg fold changes vs control: 1.3 fold
  PRKCBP1 (209048_s_at) mRNA expression, Avg fold changes vs control: 1.0 fold
  PRKCBP1 (209049_s_at) mRNA expression, Avg fold changes vs control: 1.0 fold
  PTPN7 (204852_s_at) mRNA expression, Avg fold changes vs control: 1.4 fold
  SIGIRR (52940_at) mRNA expression, Avg fold changes vs control: 1.0 fold
  STAT1 (200887_s_at) mRNA expression, Avg fold changes vs control: 1.1 fold
  STAT1 (AFFX-HUMISGF3A/M97935_3_at) mRNA expression, Avg fold changes vs control: 1.0 fold
  STAT3 (208992_s_at) mRNA expression, Avg fold changes vs control: 1.1 fold
  TCIRG1 (204158_s_at) mRNA expression, Avg fold changes vs control: 1.0 fold
  THY1 (213869_x_at) mRNA expression, Avg fold changes vs control: 0.6 fold
  TMPO (209753_s_at) mRNA expression, Avg fold changes vs control: 1.1 fold
  TMSB10 (217733_s_at) mRNA expression, Avg fold changes vs control: 1.2 fold
  TNFRSF21 (218856_at) mRNA expression, Avg fold changes vs control: 1.2 fold
  TRB@ (210915_x_at) mRNA expression, Avg fold changes vs control: 1.0 fold
  TRB@ (213193_x_at) mRNA expression, Avg fold changes vs control: 1.2 fold
[2]
  209813_x_at avg fold change vs control: 1.0 fold
  AIF1 (209901_x_at) avg fold change vs control: 1.2 fold
  AIF1 (213095_x_at) avg fold change vs control: 1.5 fold
  B2M (201891_s_at) avg fold change vs control: 1.4 fold
  BCL3 (204908_s_at) avg fold change vs control: 1.3 fold
  BTN3A1 (207485_x_at) avg fold change vs control: 1.1 fold
  BTN3A3 (38241_at) avg fold change vs control: 1.2 fold
  BTN3A3 (204820_s_at) avg fold change vs control: 1.3 fold
  BTN3A3 (204821_at) avg fold change vs control: 1.5 fold
  C1QA (218232_at) avg fold change vs control: 1.2 fold
  C1QB (202953_at) avg fold change vs control: 1.1 fold
  C1R (212067_s_at) avg fold change vs control: 1.4 fold
  C1S (208747_s_at) avg fold change vs control: 1.7 fold
  C2 (203052_at) avg fold change vs control: 1.2 fold
  C4A (208451_s_at) avg fold change vs control: 2.4 fold
  CASP1 (209970_x_at) avg fold change vs control: 1.5 fold
  CASP1 (211367_s_at) avg fold change vs control: 1.3 fold
  CCL2 (216598_s_at) avg fold change vs control: 9.0 fold
  CCL3 (205114_s_at) avg fold change vs control: 1.4 fold
  CCL5 (1405_i_at) avg fold change vs control: 2.2 fold
  CCL8 (214038_at) avg fold change vs control: 1.8 fold
  CCL18 (209924_at) avg fold change vs control: 1.6 fold
  CCL19 (210072_at) avg fold change vs control: 1.6 fold
  CCNB2 (202705_at) avg fold change vs control: 1.3 fold
  CD3D (213539_at) avg fold change vs control: 1.9 fold
  CD8A (205758_at) avg fold change vs control: 1.4 fold
  CD14 (201743_at) avg fold change vs control: 1.1 fold
  CD74 (209619_at) avg fold change vs control: 1.3 fold
  CLU (208791_at) avg fold change vs control: 1.0 fold
  CMAH (210571_s_at) avg fold change vs control: 1.4 fold
  CTSC (201487_at) avg fold change vs control: 1.4 fold
  CTSK (202450_s_at) avg fold change vs control: 1.3 fold
  CTSS (202902_s_at) avg fold change vs control: 1.3 fold
  CX3CR1 (205898_at) avg fold change vs control: 1.6 fold
  CXCL9 (203915_at) avg fold change vs control: 1.3 fold
  CXCL10 (204533_at) avg fold change vs control: 1.3 fold
  CXCL11 (210163_at) avg fold change vs control: 2.1 fold
  CXCL11 (211122_s_at) avg fold change vs control: 2.0 fold
  CXCL12 (209687_at) avg fold change vs control: 1.3 fold
  CYBA (203028_s_at) avg fold change vs control: 1.0 fold
  CYBB (203923_s_at) avg fold change vs control: 1.2 fold
  CYP1B1 (202436_s_at) avg fold change vs control: 1.3 fold
  CYP3A5 (214234_s_at) avg fold change vs control: 1.2 fold
  CYP11B1 (214630_at) avg fold change vs control: 0.9 fold
  DUSP6 (208893_s_at) avg fold change vs control: 1.1 fold
  ECGF1 (204858_s_at) avg fold change vs control: 1.4 fold
  ECM1 (209365_s_at) avg fold change vs control: 1.1 fold
  F2RL1 (206429_at) avg fold change vs control: 1.5 fold
  F13A1 (203305_at) avg fold change vs control: 1.3 fold
  FCGR1A (214511_x_at) avg fold change vs control: 1.0 fold
  FCGR3A (204006_s_at) avg fold change vs control: 1.5 fold
  G1P2 (205483_s_at) avg fold change vs control: 2.1 fold
  GZMB (210164_at) avg fold change vs control: 1.8 fold
  HCA127 (220040_x_at) avg fold change vs control: 0.5 fold
  HCK (208018_s_at) avg fold change vs control: 1.2 fold
  HFE (210864_x_at) avg fold change vs control: 0.9 fold
